Source: patent US20230210825A1, “METHODS AND COMPOSITIONS FOR TREATING SUBJECTS WITH METABOLIC DISORDERS AND CORONAVIRUS INFECTIONS” (CIRIUS THERAPEUTICS, INC., priority 2020, published 2023)

How the values were obtained:
carbonyl reductase = experiment: Metabolism to the hydroxy metabolite
[1] = test system: mice on high trans-fat, fructose, cholesterol (HTF-C) diet; experiment: Serum miRNA sequencing in HTF-C diet mice; type: in vivo; conditions: HTF-C diet containing 331 ppm MSDC-0602K after 4 or 16 weeks of plain HTF-C diet
Protocol: To begin evaluating the exosome cargo of MSDC-0602K-treated mice, WT mice were fed with either a low fat (LF) control diet (Research Diets D09100304) or high trans-fat, fructose, cholesterol (HTF-C) diet composed of 40% trans-fat, 20% fructose, 2% cholesterol (Research Diets D09100301). A subset of mice was fed plain HTF-C diet for 4 or 16 weeks, then switched to HTF-C diet that contained 331 ppm MSDC-0602K.
Total RNA was isolated from 400 μL of serum and small RNA sequencing was performed by adapter ligation, cDNA synthesis and size selection of 145-160 base pairs. Sequencing was then performed on an Illumina HiSeq3000.

[2] = test system: cell functions and key regulatory proteins; experiment: Impact of MSDC-0602K vs overnutrition on cell functions and key regulatory proteins (Table 1)
[3] = test system: mice fed a diet enriched in trans fat, cholesterol and fructose; experiment: Trans fat, cholesterol and fructose diet for 19 weeks: hepatic damage and fibrosis; type: in vivo
Protocol: Mice were fed a diet enriched in trans fat, cholesterol and fructose for 19 weeks to induce hepatic damage and metabolic dysfunction, which was assessed by histological changes in the NAS and fibrosis, measured by trichrome staining for collagen. MSDC-0602K (30 mg/kg) was given at either four weeks into the treatment or 16 weeks into the treatment as compared to the vehicle treated mice who were also on the modified diet. The results of mice who were kept on the normal diet are included for comparison. […] The signals for activation of the stellate cells and fibrosis are attenuated by treatment of the mice or isolated hepatocytes with MSDC-0602K.

[4] = test system: subjects with biopsy proven non-alcoholic steatohepatitis (NASH) with fibrosis and no cirrhosis; experiment: EMMINENCE Phase 2b clinical trial; type: in vivo, human; conditions: for Peripheral Edema Present at Baseline / Isoleucine Baseline / Leucine Baseline / TotalBCAA Baseline / Valine Baseline / Mean HbA1c at Baseline: before treatment; for Isoleucine Visit 7 / Leucine Visit 7 / TotalBCAA Visit 7 / Valine Visit 7: 12-month endpoint; for HbA1c Placebo-corrected change from Baseline at 6 months: ▾ (decrease)
Protocol: An interim analysis of the EMMINENCE Phase 2b trial was conducted in the first 328 subjects who reached their six-month follow-up visit. This study is a randomized, double-blinded study of three doses (62.5 mg 125 mg, or 250 mg) of MSDC-0602K or placebo given orally once daily to subjects with biopsy proven non-alcoholic steatohepatitis (NASH; a non-limiting example of a metabolic disorder) with fibrosis and no cirrhosis.
The subjects included in this interim analysis had significant liver disease, as established by liver biopsy, with an average NAS at baseline of 5.3. […] Overall, baseline characteristics were well-balanced across treatment groups.

[5] = test system: influenza virus A/PR/8/34 (H1N1) infected mice; experiment: Influenza virus infection of C57BL/6 mice; type: in vivo; conditions: 30 mg/kg for 8 days
Protocol: As shown in the top panel of FIG. 13A, C57BL/6 mice were infected with the influenza virus A/PR/8/34 (H1N1; ˜200 pfu/mouse) and then dosed for 8 days with vehicle or 30 mg/kg MSDC-0602K. As shown in the bottom panel of FIG. 13A, body weight was measured daily as indication of the health of the mice and at day 14 the mice were sacrificed for examination of their blood and lung tissue. The mice were sacrificed on day 14. […] The MCP-1 production levels are decreased in mice treated with MSDC-0602K compared with mice with vehicle treatment. Similarly, the inflammatory monocyte numbers in the lungs are reduced in mice treated with MSDC-0602K compared with mice with vehicle treatment. FIG. 13 C is a representative histology with a calculation of the percent disrupted area. […] The levels of protein-B (sftbp) and ABCA3 protein (abca3) were increased in mice treated with MSDC-0602K compared with mice with vehicle treatment. On the other hand, the total protein levels in bronchoalveolar lavage were decreased in mice treated with MSDC-0602K compared with mice with vehicle treatment.

[6] = 62.5 mg, N = 99, mean, baseline to 12-month endpoint
[7] = 125 mg, mean, baseline to 12-month endpoint
[8] = 250 mg, N = 101, mean, baseline to 12-month endpoint
[9] = 1-year Phase 2b dose-ranging trial, fatty liver disease with or without type 2 diabetes
[10] = all MSDC-0602K dose cohorts, interim analysis
[11] = all subjects, six months, 125 mg and 250 mg doses
[12] = sacrificed day 14, vs vehicle (FIG. 13B)

## COc1cccc(C(=O)COc2ccc(CC3SC(=O)NC3=O)cc2)c1 (stereo not shown) [MSDC-0602K]
Carbonyl reductase
  metabolism: metabolized to its hydroxy metabolite (MSDC-0597) by a carbonyl reductase
[1]
  serum miRNAs altered by HTF-C diet: largely corrected
[2]
  Fatty acid oxidation (burning fat): Increased
  HIF1α (transcription factor responding to oxygen): Decreased
  Inflammation (ballooning due to injury): Decreased
  Insulin sensitivity (cellular response to insulin): Increased
  PPARγ, PPARα (transcription factors regulating fat metabolism and inflammation): Increased
  SREBP (transcription factor regulating fat synthesis): Decreased
  de novo lipid synthesis (making new fat): Decreased
  mTORC1 (important nutrient sensor): Decreased
[3]; 30 mg/kg from week 4 or week 16 of a 19-week diet, mice or isolated hepatocytes
  signals for activation of the stellate cells and fibrosis: attenuated
[3]; multiple animal models
  high fat, high cholesterol, high sugar diet-induced metabolic dysfunction: protect against
[4]; 62.5 mg (n = 81)
  Peripheral Edema Present at 6 months: 7.80%
[4]; 62.5 mg group (n = 81)
  Peripheral Edema Present at Baseline: 13.60%
[4]; 62.5 mg, N = 99, mean
  Isoleucine Visit 7: 61.47
  Leucine Visit 7: 114.63
  TotalBCAA Visit 7: 397.39
  Valine Visit 7: 221.29
  Isoleucine Baseline: 69.03
  Leucine Baseline: 121.80
  TotalBCAA Baseline: 430.03
  Valine Baseline: 239.20
[4]; [6]
  Isoleucine Change from Baseline: −6.58
  TotalBCAA Change from Baseline: −30.07
  Valine Change from Baseline: −16.74
[4]; 125 mg (n = 84)
  Peripheral Edema Present at 6 months: 13.50%
[4]; 125 mg group (n = 84)
  Peripheral Edema Present at Baseline: 13.10%
[4]; 125 mg, mean
  Isoleucine Visit 7: 60.06
  Leucine Visit 7: 115.95
  TotalBCAA Visit 7: 399.74
  Valine Visit 7: 223.73
  Isoleucine Baseline: 62.55
  Leucine Baseline: 115.62
  TotalBCAA Baseline: 408.60
  Valine Baseline: 230.43
[4]; [7]
  Isoleucine Change from Baseline: −2.92
  Leucine Change from Baseline: −0.60
  TotalBCAA Change from Baseline: −9.61
[4]; 250 mg (n = 85)
  Peripheral Edema Present at 6 months: 11.10%
[4]; 250 mg group (n = 85)
  Peripheral Edema Present at Baseline: 9.40%
[4]; 250 mg, N = 101, mean
  Valine Visit 7: 212.52
  Isoleucine Baseline: 66.92
  Leucine Baseline: 121.54
  Valine Baseline: 232.15
[4]; [8]
  Isoleucine Change from Baseline: −10.10
  Valine Change from Baseline: −17.15
[4]; 1-year Phase 2b dose-ranging trial
  edema: without precipitation of edema
[4]; [9]
  glycemic control: improved glycemic control
  insulin resistance: reduced insulin resistance
[4]; Type II diabetes subjects, 62.5 mg group
  Mean HbA1c at Baseline: 7.09%
[4]; Type II diabetes subjects, 62.5 mg, p 0.022
  HbA1c Placebo-corrected change from Baseline at 6 months: ▾0.37
[4]; Type II diabetes subjects, 125 mg group
  Mean HbA1c at Baseline: 6.90%
[4]; Type II diabetes subjects, 125 mg, p 0.001
  HbA1c Placebo-corrected change from Baseline at 6 months: ▾0.55
[4]; Type II diabetes subjects, 250 mg group
  Mean HbA1c at Baseline: 6.97%
[4]; Type II diabetes subjects, 250 mg, p 0.006
  HbA1c Placebo-corrected change from Baseline at 6 months: ▾0.45
[4]; Type II diabetes subjects, all doses
  HbA1c: statistically significant improvement
[4]; [10]
  HOMA-IR: Statistically significant reductions
  HbA1c: Statistically significant reductions
[4]; [11]
  HOMA-IR: statistically significant improvements
  HbA1c: statistically significant improvements
  fasting glucose: statistically significant improvements
  insulin levels: statistically significant improvements
[4]; all treatment cohorts
  Adiponectin: increased significantly in all treatment cohorts in a dose dependent manner
[4]; interim analysis
  additional biomarkers of fibrosis such as hematocrit: trends for improvement
[4]; interim analysis, six months
  alkaline phosphatase: Improvements
  bilirubin: Improvements
  gamma GT: Improvements
[4]; overall, interim analysis
  lipids: neutral effect
[4]; six months compared to baseline, interim analysis
  liver enzymes, including ALT and AST: statistically significant reductions
[4]; two lowest doses
  C-Reactive Protein levels: decrease
[5]; sacrificed day 14, vs vehicle
  expression of ABCA3 protein (abca3) in the lungs: increased
  expression of surfactant protein-B (sftbp) in the lungs: increased
[5]; [12]
  MCP-1 (CCL2) production in the lungs: decreased
  inflammatory monocyte numbers in the lungs: reduced
[5]; sacrificed day 14, vs vehicle (FIG. 13C)
  disrupted area in lung (histology): significantly reduced
[5]; sacrificed day 14, vs vehicle (FIG. 13E)
  total protein levels in bronchoalveolar lavage (lung barrier leakage): decreased
